Laboratory results: patent US8791132B2, “Compounds and methods for treatment of hypertension” (Medivation Technologies, Inc., priority 2011, dated 2014)

How the values were obtained:
[1] = molecular target: T1, human recombinant adrenergic α2B receptor (Homo sapiens, UniProt P18089); experiment: Radioligand binding, adrenergic α2B ([3H]Rauwolscine); details: for Percentage inhibition of ligand binding, Adrenergic α2B (0.03 μM): compound at 0.03 μM; for Percentage inhibition of ligand binding, Adrenergic α2B (0.03 μM) / inhibition at 0.03 µM: [3H]Rauwolscine, repeat datapoints each shown; for inhibition at 0.03 µM: read-out: Percentage inhibition of ligand binding, Adrenergic α2B (0.03 μM), compound at 0.03 μM; for Ki: read-out: Ki α2B
T1 construct: expressed in transfected cells; host or cells: CHO-K1
T1 sequence (P18089 1-450): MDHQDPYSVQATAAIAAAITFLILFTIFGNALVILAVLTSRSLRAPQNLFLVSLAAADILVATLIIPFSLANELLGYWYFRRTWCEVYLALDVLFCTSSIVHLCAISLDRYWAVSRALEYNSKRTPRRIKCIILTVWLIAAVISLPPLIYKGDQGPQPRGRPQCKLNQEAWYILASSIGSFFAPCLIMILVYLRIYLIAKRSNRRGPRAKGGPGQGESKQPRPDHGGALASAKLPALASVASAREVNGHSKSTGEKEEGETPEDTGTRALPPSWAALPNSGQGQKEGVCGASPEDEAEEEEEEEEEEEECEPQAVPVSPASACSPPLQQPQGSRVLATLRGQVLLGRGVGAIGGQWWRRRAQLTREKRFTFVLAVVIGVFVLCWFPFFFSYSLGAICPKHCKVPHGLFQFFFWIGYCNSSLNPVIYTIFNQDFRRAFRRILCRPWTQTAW
Summary of the method: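 Membranes from CHO-K1 cells expressing human recombinant α2B, in 50 mM Tris-HCl pH 7.4, 12.5 mM MgCl2, 1 mM EDTA, 0.2% BSA, incubated with compound and 2.5 nM [3H]Rauwolscine, 60 min, 25 °C.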

[2] = molecular target: T2, human recombinant adrenergic α2A receptor (Homo sapiens, UniProt P08913); experiment: Radioligand binding, adrenergic α2A ([3H]MK-912); details: for Percentage inhibition of ligand binding, Adrenergic α2A (0.1 μM): compound at 0.1 μM; for Percentage inhibition of ligand binding, Adrenergic α2A (0.1 μM) / inhibition at 0.03 µM / inhibition at 0.1 µM: [3H]MK-912, repeat datapoints each shown; for inhibition at 0.03 µM: read-out: Percentage inhibition of ligand binding, Adrenergic α2A (0.03 μM), compound at 0.03 μM; for inhibition at 0.1 µM: read-out: Percentage inhibition of ligand binding, Adrenergic α2A (0.1 μM), compound at 0.1 μM
T2 construct: expressed in transfected cells; host or cells: insect Sf9 cells
T2 sequence (P08913 1-465): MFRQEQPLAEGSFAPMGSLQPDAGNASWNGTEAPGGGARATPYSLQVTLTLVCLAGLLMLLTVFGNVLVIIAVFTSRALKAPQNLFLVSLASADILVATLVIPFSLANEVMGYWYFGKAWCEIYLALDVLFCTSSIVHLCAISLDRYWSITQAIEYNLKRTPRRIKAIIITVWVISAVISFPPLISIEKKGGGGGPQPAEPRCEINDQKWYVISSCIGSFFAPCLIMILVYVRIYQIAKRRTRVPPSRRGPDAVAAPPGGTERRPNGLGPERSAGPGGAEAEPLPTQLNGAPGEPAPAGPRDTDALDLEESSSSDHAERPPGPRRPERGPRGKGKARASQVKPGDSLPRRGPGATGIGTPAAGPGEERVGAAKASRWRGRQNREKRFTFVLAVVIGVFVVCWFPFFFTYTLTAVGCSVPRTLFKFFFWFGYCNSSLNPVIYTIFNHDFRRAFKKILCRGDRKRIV
Summary of the method: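 In 50 mM Tris-HCl (pH 7.4) containing 12.5 mM MgCl2 and 2 mM EDTA, Sf9-expressed receptor was exposed to test compound plus 1 nM [3H]MK-912 at 25 °C for 60 min. Specific binding, corrected using 10 μM WB-4101, was quantified by filtration and counting and expressed as percent inhibition.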

[3] = molecular target: T3, rat adrenergic α1B receptor (Rattus norvegicus, UniProt P15823); experiment: Radioligand binding, adrenergic α1B ([3H]Prazosin); details: [3H]Prazosin, repeat datapoints each shown; for Percentage inhibition of ligand binding, Adrenergic α1B (0.1 μM): compound at 0.1 μM; for inhibition at 0.03 µM: read-out: Percentage inhibition of ligand binding, Adrenergic α1B (0.03 μM), compound at 0.03 μM; for inhibition at 0.1 µM: read-out: Percentage inhibition of ligand binding, Adrenergic α1B (0.1 μM), compound at 0.1 μM
T3 construct: rat adrenergic α1B receptor obtained from Wistar Rat liver; from tissue; host or cells: Wistar rat liver
T3 sequence (P15823 1-515): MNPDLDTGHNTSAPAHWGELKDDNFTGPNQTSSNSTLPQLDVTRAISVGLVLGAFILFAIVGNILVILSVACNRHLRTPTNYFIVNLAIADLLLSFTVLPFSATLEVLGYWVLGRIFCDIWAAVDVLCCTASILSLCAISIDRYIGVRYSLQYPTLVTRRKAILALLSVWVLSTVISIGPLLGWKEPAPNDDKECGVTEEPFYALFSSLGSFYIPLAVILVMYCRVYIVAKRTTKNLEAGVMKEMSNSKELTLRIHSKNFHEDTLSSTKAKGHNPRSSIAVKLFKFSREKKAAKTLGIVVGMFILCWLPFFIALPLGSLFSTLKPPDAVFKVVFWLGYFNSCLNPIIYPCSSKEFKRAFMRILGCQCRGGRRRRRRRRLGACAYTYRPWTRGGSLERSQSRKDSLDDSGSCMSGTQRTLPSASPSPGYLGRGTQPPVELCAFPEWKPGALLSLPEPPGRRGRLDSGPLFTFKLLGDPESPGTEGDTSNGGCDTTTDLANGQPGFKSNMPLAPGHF
Summary of the method: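 Filter binding with Wistar rat liver α1B preparation: test compound plus 0.25 nM [3H]prazosin, 1 h at 25° C in modified Tris-HCl buffer pH 7.4.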

Percentage inhibition of ligand binding, Adrenergic α2B (0.03 μM) [1]	Percentage inhibition of ligand binding, Adrenergic α2A (0.1 μM) [2]	Percentage inhibition of ligand binding, Adrenergic α1B (0.1 μM) [3]	inhibition at 0.03 µM [1]	Ki [1]	Ki [2]	inhibition at 0.03 µM [2]	inhibition at 0.1 µM [2]	inhibition at 0.03 µM [3]	inhibition at 0.1 µM [3]	SMILES
93%	75%	61%	–	–	–	–	–	–	–	Cc1cc2c3c(n(CC(C)(O)c4cccnc4)c2cc1Cl)CCN(C)C3 (single isomer, unassigned) [II-123b, 1-(7-chloro-2,8-dimethyl-3,4-dihydro-1H-pyrido[4,3-b]indol-5(2H)-yl)-2-(pyridin-3-yl)propan-2-ol]
–	23%	−2%	26%	–	–	–	–	–	–	Cc1ccc2c(c1Cl)c1c(n2CC(C)(O)c2cccnc2)CCN(C)C1 (single isomer, unassigned) [II-124a, 1-(9-chloro-2,8-dimethyl-3,4-dihydro-1H-pyrido[4,3-b]indol-5(2H)-yl)-2-(pyridin-3-yl)propan-2-ol]
18%	7%	10%	–	–	–	–	–	–	–	Cc1ccc2c(c1Cl)c1c(n2CC(C)(O)c2cccnc2)CCN(C)C1 (single isomer, unassigned) [II-124b, 1-(9-chloro-2,8-dimethyl-3,4-dihydro-1H-pyrido[4,3-b]indol-5(2H)-yl)-2-(pyridin-3-yl)propan-2-ol]
100%	62%	92%	–	–	–	–	–	–	–	Cc1cc(C)c2c(c1)c1c(n2CC(O)c2ccncc2)CCN2CCCC12 (single isomer, unassigned) [II-125a, 2-(8,10-dimethyl-2,3,5,6-tetrahydro-1H-indolizino[7,8-b]indol-7(11cH)-yl)-1-(pyridin-4-yl)ethanol]
106%	98%	102%	103%	0.16 nM	1.21 nM	89%	97%	89%	97%	Cc1cc(C)c2c(c1)c1c(n2CC(O)c2ccncc2)CCN2CCCC12 (single isomer, unassigned) [II-125b, 2-(8,10-dimethyl-2,3,5,6-tetrahydro-1H-indolizino[7,8-b]indol-7(11cH)-yl)-1-(pyridin-4-yl)ethanol]
67%	9%	42%	–	–	–	–	–	–	–	Cc1cc(C)c2c(c1)c1c(n2CC(O)c2ccncc2)CCN2CCCC12 (single isomer, unassigned) [II-125c, 2-(8,10-dimethyl-2,3,5,6-tetrahydro-1H-indolizino[7,8-b]indol-7(11cH)-yl)-1-(pyridin-4-yl)ethanol]
88%	71%	64%	–	–	–	–	–	–	–	Cc1cc(C)c2c(c1)c1c(n2CC(O)c2ccncc2)CCN2CCCC12 (single isomer, unassigned) [II-125d, 2-(8,10-dimethyl-2,3,5,6-tetrahydro-1H-indolizino[7,8-b]indol-7(11cH)-yl)-1-(pyridin-4-yl)ethanol]
–	79%	–	105%	–	–	–	–	–	83%	Cc1ccc2c(c1)c1c(n2CC(C)(O)c2cccnc2)CCN2CCCC12 (single isomer, unassigned) [II-127a, 1-(9-methyl-1,2,3,4,5,10c-hexahydro-3a,6-diaza-cyclopenta[c]fluoren-6-yl)-2-pyridin-3-yl-propan-2-ol]
104%	54%	65%	–	–	–	–	–	–	–	Cc1ccc2c(c1)c1c(n2CC(C)(O)c2cccnc2)CCN2CCCC12 (single isomer, unassigned) [II-127b, 1-(9-methyl-1,2,3,4,5,10c-hexahydro-3a,6-diaza-cyclopenta[c]fluoren-6-yl)-2-pyridin-3-yl-propan-2-ol]
106%	77%	86%	102%	0.49 nM	13.1 nM	50%	74%	56%	84%	Cc1ccc2c(c1)c1c(n2CC(C)(O)c2ccc(C)nc2)CCN2CCCC12 (single isomer, unassigned) [II-128b, 1-(9-methyl-1,2,3,4,5,10c-hexahydro-3a,6-diaza-cyclopenta[c]fluoren-6-yl)-2-(6-methyl-pyridin-3-yl)-propan-2-ol]
103%	86%	92%	–	–	–	–	–	–	–	CC(O)(Cn1c2c(c3cc(Cl)ccc31)C1CCCN1CC2)c1cccnc1 (single isomer, unassigned) [II-130a, 1-(10-chloro-2,3,5,6-tetrahydro-1H-indolizino[7,8-b]indol-7(11cH)-yl)-2-(pyridin-3-yl)propan-2-ol]
33%	15%	3%	–	–	–	–	–	–	–	CC(O)(Cn1c2c(c3cc(Cl)ccc31)C1CCCN1CC2)c1cccnc1 (single isomer, unassigned) [II-130b, 1-(10-chloro-2,3,5,6-tetrahydro-1H-indolizino[7,8-b]indol-7(11cH)-yl)-2-(pyridin-3-yl)propan-2-ol]
40%	8%	33%	–	–	–	–	–	–	–	Cc1ccc2c(c1)c1c(n2CC(O)c2cc[nH]c(=O)c2)CCN2CCCC12 (single isomer, unassigned) [II-132a, 4-(2-(2,3,5,6-tetrahydro-10-methyl-1H-indolizino[7,8-b]indol-7(11cH)-yl)-1-hydroxyethyl)pyridin-2(1H)-one]
70%	22%	68%	–	–	–	–	–	–	–	Cc1ccc2c(c1)c1c(n2CC(O)c2cc[nH]c(=O)c2)CCN2CCCC12 (single isomer, unassigned) [II-132b, 4-(2-(2,3,5,6-tetrahydro-10-methyl-1H-indolizino[7,8-b]indol-7(11cH)-yl)-1-hydroxyethyl)pyridin-2(1H)-one]
